From US6875760B2 (Novo Nordisk A/S, priority 1999, dated 2005)

These compounds were tested against T1, human glucagon receptor (Homo sapiens, UniProt P47871) (assay: Glucagon Binding Assay (III)). Details: BHK cell membranes, WGA SPA beads, 125I-glucagon; read-out: Glu Bd Assay (III) IC50.
T1 construct: expressed in transfected cells; host or cells: BHK (baby hamster kidney) cells
Experimental: BHK (baby hamster kidney cell line) cells were transfected with the human glucagon receptor and a membrane preparation of the cells was prepared.
All steps in the membrane preparation were kept on ice or performed at 4° C. BHK cells were harvested and centrifuged. […] The pellet was resuspended in homogenisation buffer, homogenised 2×10 sec (Polytron) and additional homogenisation buffer was added. […] (Polytron).
The glucagon binding assay was carried out in opti plates (Polystyrene Microplates, Packard). […] Finally 50 μL WGA beads containing 1 mg beads were transferred to the well. The assay was incubated for 4 hours on a shaker and then settled for 8-48 hours. The opti plates were counted in a Topcounter. Non-specific binding was determined with 500 nM of glucagon.

T1 sequence (P47871 26-477): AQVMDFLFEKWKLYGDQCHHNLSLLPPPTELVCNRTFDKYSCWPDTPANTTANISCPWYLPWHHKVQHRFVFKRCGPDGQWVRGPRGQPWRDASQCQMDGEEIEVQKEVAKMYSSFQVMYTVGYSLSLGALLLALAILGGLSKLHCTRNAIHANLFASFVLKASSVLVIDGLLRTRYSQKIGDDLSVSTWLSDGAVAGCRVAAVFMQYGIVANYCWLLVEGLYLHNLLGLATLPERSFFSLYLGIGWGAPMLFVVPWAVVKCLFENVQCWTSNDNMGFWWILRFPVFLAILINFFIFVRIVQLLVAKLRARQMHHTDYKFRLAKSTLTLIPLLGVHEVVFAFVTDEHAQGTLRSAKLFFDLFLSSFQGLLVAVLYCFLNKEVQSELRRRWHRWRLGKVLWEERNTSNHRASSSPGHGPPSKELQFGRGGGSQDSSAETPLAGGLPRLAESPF

IC50 [nM] | SMILES
288 | CC(C)(C)[C@H]1CC[C@H](N(Cc2ccc(C(=O)Nc3nn[nH]n3)cc2)C(=O)Nc2ccc(OCC3CC3)cc2C(F)(F)F)CC1 [Example 334, 4-[1-(trans-4-tert-Butylcyclohexyl)-3-(4-cyclopropylmethoxy-2-trifluoromethylphenyl)ureidomethyl]-N-(2H-tetrazol-5-yl)benzamide]
27 | CC(C)(C)C1CCC(N(Cc2ccc(C(=O)NCCC(=O)O)cc2)C(=O)Nc2ccc(Oc3ccccc3)cc2)CC1 (stereo not drawn) [Example 17, 3-{4-[1-(4-tert-Butylcyclohexyl)-3-(4-phenoxyphenyl)ureidomethyl]benzoylamino}propionic acid]
171 | O=C(Nc1nn[nH]n1)c1ccc(CN(C(=O)Nc2cccc(SCC3CC3)c2)c2ccc(C3CCCCC3)cc2)cc1 [Example 299, 4-[1-(4-Cyclohexylphenyl)-3-(3-cyclopropylmethylsulfanylphenyl)ureidomethyl]-N-(2H-tetrazol-5-yl)benzamide]
960 | CS(=O)(=O)c1cc(NC(=O)N(Cc2ccc(C(=O)Nc3nn[nH]n3)cc2)c2ccc(C3CCCCC3)cc2)cc(S(C)(=O)=O)c1 [Example 321, 4-[3-(3,5-Bis(methylsulfonyl)phenyl)-1-(4-cyclohexylphenyl)ureidomethyl]-N-(2H-tetrazol-5-yl)benzamide]
149 | CS(=O)(=O)c1ccc(F)c(NC(=O)N(Cc2ccc(C(=O)Nc3nn[nH]n3)cc2)c2ccc(C3CCCCC3)cc2)c1 [Example 260, 4-[1-(4-Cyclohexylphenyl)-3-(2-fluoro-5-methylsulfonylphenyl)ureidomethyl]-N-(2H-tetrazol-5-yl)benzamide]
552 | CC(C)(C)C1CCC(N(Cc2ccc(C(=O)NCCC(=O)O)cc2)C(=O)Nc2ccc(-c3ccc(C#N)cc3)cc2)CC1 (stereo not drawn) [Example 68, 3-{4-[1-(4-tert-Butylcyclohexyl)-3-(4′-cyanobiphenyl-4-yl)ureidomethyl]benzoylamino}propionic acid]
13 | O=C(Nc1nn[nH]n1)c1ccc(CN(C(=O)Nc2ccc(OC(F)(F)F)c(CO)c2)c2ccc(C3CCCCC3)cc2)cc1 [Example 568]
79 | O=C(Nc1nn[nH]n1)c1ccc(CN(C(=O)NCc2ccc(OC(F)(F)F)cc2)c2ccc(C3CCCCC3)cc2)cc1 [Example 347, 4-[1-(4-Cyclohexylphenyl)-3-(4-trifluoromethoxybenzyl)ureidomethyl]-N-(2H-tetrazol-5-yl)benzamide]
1680 | O=C(O)CCNC(=O)c1ccc(CN(C(=O)Nc2ccc(OC(F)(F)F)cc2)c2ccc(Br)cc2)cc1 [Example 430, 3-{4-[1-(4-Bromophenyl)-3-(4-trifluoromethoxyphenyl)ureidomethyl]benzoylamino}propionic acid]
1740 | CC(C)(C)C1CCC(N(Cc2ccc(C(=O)Nc3nn[nH]n3)cc2)C(=O)C2=CCc3ccccc32)CC1 (stereo not drawn) [Example 546, 4-([(4-tert-Butylcyclohexyl)-(3H-indene-1-carbonyl)amino]methyl}-N-(2H-tetrazol-5-yl)benzamide]
217 | O=C(Nc1nn[nH]n1)c1ccc(CN(C(=O)/C=C/c2ccccc2Br)c2ccc(C3CCCCC3)cc2)cc1 [Example 501, 4-{[[3-(2-Bromophenyl)acryloyl]-(4-cyclohexylphenyl)amino]methyl}-N-(2H-tetrazol-5-yl)benzamide]
179 | COc1ccc(NC(=O)N(Cc2ccc(C(=O)Nc3nn[nH]n3)cc2)c2ccc(C3CCCCC3)cc2)cc1S(C)(=O)=O [Example 340, 4-[1-(4-Cyclohexylphenyl)-3-(3-methylsulfonyl-4-methoxyphenyl)ureidomethyl]-N-(2H-tetrazol-5-yl)benzamide]
266 | CCOC(=O)c1ccc2nc(NC(=O)N(Cc3ccc(C(=O)NCCC(=O)O)cc3)[C@H]3CC[C@H](C(C)(C)C)CC3)sc2c1 [Example 254, 2-{3-(4-trans-tert-Butylcyclohexyl)-3-[4-(2-carboxyethylcarbamoyl)benzyl]ureido}benzothiazole-6-carboxylic acid ethyl ester]
1700 | CC(C)Oc1ccc(C(=O)N(Cc2ccc(C(=O)NCCC(=O)O)cc2)C2CCC(C(C)(C)C)CC2)cc1 (stereo not drawn) [Example 526, 3-(4-{[(4-tert-Butylcyclohexyl)-(4-isopropoxybenzoyl)amino]methyl}benzoylamino)propionic acid]
1260 | CC(C)(C)C1CCC(N(Cc2ccc(C(=O)Nc3nn[nH]n3)cc2)C(=O)C2=CCc3ccccc32)CC1 (stereo not drawn) [Example 474, 3H-Indene-1-carboxylic acid (4-tert-butylcyclohexyl)-[4-(2H-tetrazol-5-ylcarbamoyl)benzyl]amide]
280 | CC(C)(C)C1CCC(N(Cc2ccc(C(=O)Nc3nn[nH]n3)cc2)C(=O)CSCc2ccccc2)CC1 (stereo not drawn) [Example 537, 4-{[(2-Benzylsulfanylacetyl)-(4-tert-butylcyclohexyl)amino]methyl}-N-(2H-tetrazol-5-yl)benzamide]
168 | CC(C)(C)C1CCC(N(Cc2ccc(C(=O)NCCC(=O)O)cc2)C(=O)Nc2ccc(C#N)c(C(F)(F)F)c2)CC1 (stereo not drawn) [Example 70, 3-{4-[1-(4-tert-Butylcyclohexyl)-3-(4-cyano-3-trifluoromethylphenyl)ureidomethyl]benzoylamino}propionic acid]
319 | CC(=O)c1ccc(NC(=O)N(Cc2ccc(C(=O)Nc3nn[nH]n3)cc2)C2CCC(C(C)(C)C)CC2)cc1 (stereo not drawn) [Example 273, 4-[3-(4-Acetylphenyl)-1-(4-tert-butylcyclohexyl)ureidomethyl]-N-(2H-tetrazol-5-yl)benzamide]
227 | CCCCC(CC)CN(Cc1ccc(C(=O)NCCC(=O)O)cc1)C(=O)Nc1ccc(C)cc1 (stereo not drawn) [Example 39, 3-{4-[1-(2-Ethylhexyl)-3-p-tolylureidomethyl]benzoylamino}propionic acid]
1250 | CC(C)c1ccc(CN(Cc2ccc(C(=O)NCCC(=O)O)cc2)C(=O)Nc2ccc(OC(F)(F)F)cc2)cc1 [Example 433, 3-{4-[1-(4-Isopropylbenzyl)-3-(4-trifluoromethoxyphenyl)ureidomethyl]benzoylamino}propionic acid]
1980 | CC(C)Cc1ccc(C(=O)N(Cc2ccc(C(=O)NCCC(=O)O)cc2)c2ccc(C3CCCCC3)cc2)cc1 [Example 520, 3-(4-{[(4-Cyclohexylphenyl)-(4-isobutylbenzoyl)amino]methyl}benzoylamino)propionic acid]
282 | O=C(Nc1nn[nH]n1)c1ccc(CN(C(=O)/C=C/c2cccc3ccccc23)c2ccc(C3CCCCC3)cc2)cc1 [Example 534, 4-{[(4-Cyclohexylphenyl)-(3-naphthalen-1-ylacryloyl)amino]methyl}-N-(2H-tetrazol-5-yl)benzamide]

SMILES | IC50 [nM]
O=C(O)CCNC(=O)c1ccc(CN(C(=O)Oc2cc(C(F)(F)F)cc(C(F)(F)F)c2)c2ccc(C3CCCCC3)cc2)cc1 [Example 419, 3-(-4-{[(3,5-Bis(trifluoromethyl)phenoxycarbonyl)-(4-cyclohexylphenyl)amino]methyl}benzoylamino)propionic acid] | 482
O=C(O)CCNC(=O)c1ccc(CN(C(=O)Oc2ccc([N+](=O)[O-])cc2)c2ccc(C3CCCCC3)cc2)cc1 [Example 413, 3-(4-{[(4-Cyclohexylphenyl)-(4-nitrophenoxycarbonyl)amino]methyl}benzoylamino)propionic acid] | 1200
